Each compound was assayed on HCV replicon cells (assay: Cell-based HCV replicon assay (replicon RNA level by real time PCR, Taqman)). Settings: HCV replicon cells, harvested day 3, replicon RNA by real time PCR; reported as range class; read-out: EC90 (μM) range.
Description: Assays Cell-Based HCV Replicon Assay
To measure cell-based anti-HCV activity of the compounds of the present invention, replicon cells were seeded at 5000 cells/well in 96-well collagen I-coated Nunc plates in the presence of the compound of the invention. Various concentrations of a compound of the invention, typically in 10 serial 2-fold dilutions, were added to the assay mixture, the starting concentration of the compound ranging from 25 μM to 1 μM. The final concentration of DMSO was 0.5%, fetal bovine serum was 10%, in the assay media. Cells were harvested on day 3 by the addition of 1× cell lysis buffer (Ambion cat #8721). The replicon RNA level was measured using real time PCR (Taqman assay). The amplicon was located in 5B. The PCR primers were: 5B.2F, ATGGACAGGCGCCCTGA (SEQ. ID NO. 1); 5B.2R, […] (SEQ. ID NO. 2); the probe sequence was FAM-labeled CACGCCATGCGCTGCGG (SEQ. ID NO. 3). GAPDH RNA was used as endogenous control and was amplified in the same reaction as NS5B (multiplex PCR) using primers and VIC-labeled probe recommended by the manufacturer (PE Applied Biosystem). The real-time RT-PCR reactions were run on ABI PRISM 7900HT Sequence Detection System using the following program: 48′C for 30 min, 95° C. for 10 min, 40 cycles of 95° C. for 15 sec, 60° C. for 1 min. The ΔCT values (CT5B-CTGAPDH) were plotted against the concentration of test compound and fitted to the sigmoid dose-response model using GraphPad PRISM software. EC50 was defined as the concentration of inhibitor necessary to achieve ΔCT=1 over the projected baseline; EC90 the concentration necessary to achieve ΔCT=3.2 over the baseline. Alternatively, to quantitate the absolute amount of replicon RNA, a standard curve was established by including serially diluted T7 transcripts of replicon RNA in the Taqman assay. All Taqman reagents were from PE Applied Biosystems. Such an assay procedure was described in detail in e.g. Malcolm et al., Antimicrobial Agents and Chemotherapy 50: 1013-1020 (2006).
HCV Replicon assay data for compounds of the invention that were tested was obtained using the above method. Calculated EC90 values are reported for each compound in Table I as a falling within the following ranges: […]

SMILES | EC90
COc1cc2cc(-c3c(Cl)nc(N(C)C)nc3N[C@@H]3C[C@H](CO)[C@@H](O)[C@H]3O)oc2c(C)n1 [Example 12] | 0.5 to 5 µM
COc1cc2cc(-c3c(Cl)nc(N(C)C)nc3N[C@@H]3C[C@H](CO)[C@@H](O)[C@H]3O)oc2c(C)n1 [Example 13] | > 5 µM

Same assay, conditions: HCV replicon cells, replicon RNA level by real time PCR, harvested day 3; read-out: EC90 (μM) range

SMILES | EC90
Cc1nc(N[C@H](C)c2ccc(OC(F)(F)F)cc2)nc(N[C@@H]2C[C@H](C(C)O)[C@@H](O)[C@H]2O)c1-c1nc2ccccc2s1 (single isomer, unassigned) [Example 1646] | 0.5 to 5 µM
Cc1nc(NCC2CC2)nc(N[C@@H]2C[C@H](C(C)O)[C@@H](O)[C@H]2O)c1-c1nc2ccccc2s1 (single isomer, unassigned) [Example 1647] | 0.5 to 5 µM
Cc1nc(NCC(F)(F)F)nc(N[C@@H]2C[C@H](C(C)O)[C@@H](O)[C@H]2O)c1-c1nc2ccccc2s1 (single isomer, unassigned) [Example 1648] | 0.5 to 5 µM

Same assay, conditions: Hepatitis C virus, 72 h, HCV replicon cells, harvested day 3, replicon RNA by real time PCR; given as number; read-out: EC90 (μM) range

SMILES | EC90
CCOc1cc2cc(-c3c(C)nc(NCc4nccs4)nc3N[C@@H]3C[C@H](CO)[C@@H](O)[C@H]3O)oc2c(C)n1 [Example 24] | 0.02 µM
COCCNc1nc(C)c(-c2cc3cc(OC)ncc3o2)c(N[C@@H]2C[C@H](CO)[C@@H](O)[C@H]2O)n1 [Example 25] | 0.8 µM
CCOc1cc2cc(-c3c(C)nc(NC(C)(C)CC)nc3N[C@@H]3C[C@H](CO)[C@@H](O)[C@H]3O)oc2c(C)n1 [Example 26] | 0.5 µM
CCOc1cc2cc(-c3c(C)nc(NCC(C)(C)C)nc3N[C@@H]3C[C@H](CO)[C@@H](O)[C@H]3O)oc2c(C)n1 [Example 27] | 0.35 µM
CCOc1cc2cc(-c3c(C)nc(NC)nc3N[C@@H]3C[C@H](CO)[C@@H](O)[C@H]3O)oc2c(C)n1 [Example 28] | 0.45 µM
CCOc1cc2cc(-c3c(C)nc(NCC(F)(F)F)nc3N[C@@H]3C[C@H](CO)[C@@H](O)[C@H]3O)oc2c(C)n1 [Example 29] | 0.1 µM
CCOc1cc2cc(-c3c(C)nc(NCC4CC4)nc3N[C@@H]3C[C@H](CO)[C@@H](O)[C@H]3O)oc2c(C)n1 [Example 30] | 0.14 µM
CCOc1cc2cc(-c3c(C)nc(NC(C)C)nc3N[C@@H]3C[C@H](CO)[C@@H](O)[C@H]3O)oc2c(C)n1 [Example 32] | 0.95 µM
CCCOc1cc2cc(-c3c(C)nc(NCC(F)(F)F)nc3N[C@@H]3C[C@H](CO)[C@@H](O)[C@H]3O)oc2c(C)n1 [Example 34] | 0.1 µM
CCCOc1cc2cc(-c3c(C)nc(NCCOC)nc3N[C@@H]3C[C@H](CO)[C@@H](O)[C@H]3O)oc2c(C)n1 [Example 35] | 0.1 µM
CCOc1cc2cc(-c3c(C)nc(NCc4cc(OC)cc(OC)c4)nc3N[C@@H]3C[C@H](CO)[C@@H](O)[C@H]3O)oc2c(C)n1 [Example 36] | 0.01 µM
COCCNc1nc(C)c(-c2cc3cc(OC(C)C)nc(C)c3o2)c(N[C@@H]2C[C@H](CO)[C@@H](O)[C@H]2O)n1 [Example 37] | 0.3 µM
CCCOc1cc2cc(-c3c(C)nc(NCC4CC4)nc3N[C@@H]3C[C@H](CO)[C@@H](O)[C@H]3O)oc2c(C)n1 [Example 38] | 0.25 µM
Cc1nc(NCC2CC2)nc(N[C@@H]2C[C@H](CO)[C@@H](O)[C@H]2O)c1-c1cc2cc(OC(C)C)nc(C)c2o1 [Example 39] | 0.1 µM
CCOc1cc2cc(-c3c(C)nc(N[C@H](C)c4ccc(C)cc4)nc3N[C@@H]3C[C@H](CO)[C@@H](O)[C@H]3O)oc2c(C)n1 [Example 40] | 0.15 µM
CCOc1cc2cc(-c3c(C)nc(N[C@H](C)C4CC4)nc3N[C@@H]3C[C@H](CO)[C@@H](O)[C@H]3O)oc2c(C)n1 [Example 41] | 0.2 µM
Cc1nc(NCC2CC2)nc(N[C@@H]2C[C@H](CO)[C@@H](O)[C@H]2O)c1-c1cc2cc(OCC3CC3)nc(C)c2o1 [Example 42] | 0.3 µM
CCC(CC)Oc1cc2cc(-c3c(C)nc(NCC4CC4)nc3N[C@@H]3C[C@H](CO)[C@@H](O)[C@H]3O)oc2c(C)n1 [Example 44] | > 25 µM
Cc1nc(NCC2CC2)nc(N[C@@H]2C[C@H](CO)[C@@H](O)[C@H]2O)c1-c1cc2cc(OCC(C)(C)C)nc(C)c2o1 [Example 45] | > 25 µM
Cc1nc(NCC(C)(C)C)nc(N[C@@H]2C[C@H](CO)[C@@H](O)[C@H]2O)c1-c1cc2cc(OCC(F)(F)F)nc(C)c2o1 [Example 46] | 0.85 µM
Cc1nc(NCC2CC2)nc(N[C@@H]2C[C@H](CO)[C@@H](O)[C@H]2O)c1-c1cc2cc(OCC(F)(F)F)nc(C)c2o1 [Example 47] | 0.4 µM

Same assay, conditions: Hepatitis C virus, 72 h, HCV replicon cells, harvested day 3, replicon RNA by real time PCR; reported as range class; read-out: EC90 (μM) range

SMILES | EC90
Nc1nc(Cl)c(-c2ccccc2)c(N[C@@H]2C[C@H](CO)[C@@H](O)[C@H]2O)n1 [Example 5] | > 5 µM
Nc1nc(Cl)c(-c2cc3cnccc3o2)c(N[C@@H]2C[C@H](CO)[C@@H](O)[C@H]2O)n1 [Example 8] | 0.5 to 5 µM
Nc1nc(Cl)c(-c2cc3ccncc3o2)c(N[C@@H]2C[C@H](CO)[C@@H](O)[C@H]2O)n1 [Example 9] | < 0.5 µM
COc1cc2cc(-c3c(Cl)nc(N)nc3N[C@@H]3C[C@H](COC(=O)C(F)(F)F)[C@@H](O)[C@H]3O)oc2cn1 [Example 10] | < 0.5 µM
COc1cc2cc(-c3c(Cl)nc(N)nc3N[C@@H]3C[C@H](CO)[C@@H](O)[C@H]3O)oc2cn1 [Example 11] | < 0.5 µM
COc1cc2cc(-c3c(Cl)nc(N)nc3N[C@@H]3C[C@H](CO)[C@@H](O)[C@H]3O)oc2c(C)n1 [Example 14] | < 0.5 µM
CNc1nc(Cl)c(-c2cc3cc(OC)nc(C)c3o2)c(N[C@@H]2C[C@H](CO)[C@@H](O)[C@H]2O)n1 [Example 15] | < 0.5 µM
Cc1ccc2oc(-c3c(Cl)nc(N)nc3N[C@@H]3C[C@H](CO)[C@@H](O)[C@H]3O)cc2n1 [Example 16] | 0.5 to 5 µM
CNc1nc(C)c(-c2cc3cc(OC)nc(C)c3o2)c(N[C@@H]2C[C@H](CO)[C@@H](O)[C@H]2O)n1 [Example 17] | < 0.5 µM
COCCNc1nc(Cl)c(-c2cc3cc(OC)nc(C)c3o2)c(N[C@@H]2C[C@H](CO)[C@@H](O)[C@H]2O)n1 [Example 18] | < 0.5 µM
CCOc1cc2cc(-c3c(Cl)nc(NCC(F)(F)F)nc3N[C@@H]3C[C@H](CO)[C@@H](O)[C@H]3O)oc2c(C)n1 [Example 20] | < 0.5 µM
CCOc1cc2cc(-c3c(Cl)nc(NCCOC)nc3N[C@@H]3C[C@H](CO)[C@@H](O)[C@H]3O)oc2c(C)n1 [Example 21] | < 0.5 µM
COc1cc2cc(-c3c(Cl)nc(NCC(F)(F)F)nc3N[C@@H]3C[C@H](CO)[C@@H](O)[C@H]3O)oc2cn1 [Example 22] | < 0.5 µM
CCOc1cc2cc(-c3c(C)nc(NCCOC)nc3N[C@@H]3C[C@H](CO)[C@@H](O)[C@H]3O)oc2c(C)n1 [Example 31] | < 0.5 µM
CCOc1cc2cc(-c3c(C)nc(Nc4ccccc4)nc3N[C@@H]3C[C@H](CO)[C@@H](O)[C@H]3O)oc2c(C)n1 [Example 33] | > 5 µM
Cc1nc(NCC2CC2)nc(N[C@@H]2C[C@H](CO)[C@@H](O)[C@H]2O)c1-c1cc2cc(-c3cccs3)nc(C)c2o1 [Example 43] | > 5 µM

Same assay, conditions: Hepatitis C virus, 72 h, HCV replicon cells, harvested on day 3, replicon RNA by real time PCR; calculated EC90 reported as range class; read-out: EC90 (μM) range

SMILES | EC90
Cc1nc(NCc2cccs2)nc(N[C@@H]2CCC[C@H]2O)c1-c1nc2ccccc2s1 (racemic) [Example 333] | < 0.5 µM
Cc1nc(NCc2cccs2)nc(N[C@@H]2CCCC2=O)c1-c1nc2ccccc2s1 (racemic) [Example 338] | < 0.5 µM

Same assay, conditions: Hepatitis C virus, 72 h, HCV replicon cells, replicon RNA level by real time PCR (Taqman), harvested on day 3; calculated EC90 reported as range class; read-out: EC90 (μM) range

SMILES | EC90
CCNc1nc(C)c(-c2nc3ccccc3s2)c(N[C@@H]2CC(C(C)(F)F)[C@@H](O)[C@H]2O)n1 (single isomer, unassigned) [Example 1074] | 0.5 to 5 µM

Same assay, conditions: Hepatitis C virus, 72 h, HCV replicon cells, replicon RNA level by real time PCR, harvested day 3; read-out: EC90 (μM) range

SMILES | EC90
Cc1nc(NCC(F)(F)F)nc(N[C@@H]2C[C@H](C(C)O)[C@@H](O)[C@H]2O)c1-c1nc2ccccc2s1 (single isomer, unassigned) [Example 1643] | < 0.5 µM
Cc1nc(NCC2CC2)nc(N[C@@H]2C[C@H](C(C)O)[C@@H](O)[C@H]2O)c1-c1nc2ccccc2s1 (single isomer, unassigned) [Example 1644] | < 0.5 µM
Cc1nc(N[C@H](C)c2ccc(OC(F)(F)F)cc2)nc(N[C@@H]2C[C@H](C(C)O)[C@@H](O)[C@H]2O)c1-c1nc2ccccc2s1 (single isomer, unassigned) [Example 1645] | 0.5 to 5 µM

— patent US8697694B2, “Substituted pyridine and pyrimidine derivatives and their use in treating viral infections” (priority 2008, dated 2014)
